In patent US20130052143A1, “LIQUID PREPARATION FOR ORAL ADMINISTRATION TO BE USED IN CT COLONOGRAPHY, AND COMPOSITION FOR DIGESTIVE TRACT IMAGING” (Ajinomoto Co., Inc., priority 2010, published 2013):

Details: in vivo
Source text: In the insufflation to inflate the intestinal tract, a carbon dioxide gas (CO2) was supplied by using a hand operated double balloon pump through the transanal route. […] No anticonvulsive agent was used.
The procedure of the imaging was such that: firstly, the posture of the examinee was set to the left lateral decubitus position; a tube for insufflation was inserted; and a gas was supplied to confirm that smooth insufflation was possible. Next, the posture of the examinee was set to the abdominal position; the insufflation was conducted until the examinee had claimed a strong feeling of fullness or the pressure inside the intestinal tract had reached 25 mmHg; scanography was performed to confirm that the large intestine had been sufficiently inflated; and thereafter the CT image was taken. After taking the image of the abdominal position, the posture of the examinee was set to the dorsal position, and scanography was again performed to take the CT image in the dorsal position. At this time, if the inflation of the large intestine had been insufficient, additional insufflation was conducted. After the completion of the CT image taking, colon endoscopy was conducted to see the circumstances of the residual feces and residual liquid in the large intestine by eye. The CT image was taken under the charge of a clinical X-ray technician.

Structure (SMILES): O=C=O [CO2, carbon dioxide gas]
- examinees who felt abdominal pains: 50.0%
